The AUC(0-t) is exposure summed from dosing to a finite time, without extrapolation to infinity. The MTD is the largest dose that counted as tolerated.

“And” between values parts separate entries of the source, which are not always exact repeats. Equal values may be shown once. Read-outs that look alike come from different tables or passages of the source. Marks after values point to notes of the source that are not given here.

These results are taken from US20050267016A1, “CD-10 activated prodrug compounds” (priority 2001, published 2005).

Series [1] has as its system LNCaP prostate carcinoma xenograft. Kind of series: LNCaP prostate carcinoma xenograft in nude mice, Q7D × 3 (Examples 30, 31). Here is the method: In this model, 7.5 million LNCaP cells resuspended in 0.1 ml of phosphate buffered saline and 0.1 ml of Matrigel (Becton Dickinson) were injected into the side of male nude mice fed on high fat diet.
The next series concerns Parental CHO cells. Kind of series: Conversion to Leu-Dox or Gly-Dox in cell supernatants, parental CHO. Type of series: cell-based, Chinese Hamster. To be noted: 10 μM, 37° C. Here is the method: (§1) To directly ask the question of whether the CD10 expressing cells were capable of cleaving the prodrug, supernatants from CD10 transfected or parental CHO cells treated with the compounds were collected. […] After incubation for 1, 4, and 24 hours, an aliquot of each supernatant was transferred to a 96-well plate and frozen at −20° C. Samples were subsequently thawed and analyzed by reversed phase HPLC (4.6×50 mm 21 TSK Super-ODS column) with fluorescence detection after dilution with 3 volumes of acetonitrile, removal of precipitate by centrifugation, and further dilution into 3 volumes of water. When incubated with Suc-βAla-Leu-Ala-Leu-Dox, there was no detectable metabolism to Leu-Dox observed with the parental cell line while clone 8 (CD10 transfected) generated significant levels of Leu-Dox from Suc-βAla-Leu-Ala-Leu-Dox (Table 27).

A further series relates to Ramos cells (CD10pos). Kind of series: cells. To be noted: ratio of IC50. Here is the method:
(§2) Suspension cells, BALL-1, Ramos and Namalwa cells were cultured in RPMI media containing 10% heat inactivated fetal calf serum (FCS). On the day of the study, the cells were collected, washed and resuspended at a concentration of 0.5×10^6 cells/ml in RPMI containing 10% FCS. 100 µl of cell suspension was added to 96 well plates. […] Finally 10 μl of a 100 μCi/ml ^3H-thymidine was added per well and the plates were incubated for 24 hours. The plates were harvested using a 96 well Harvester (Packard Instruments) and counted on a Packard Top Count counter. Four parameter logistic curves were fitted to the ^3H-thymidine incorporation as a function of drug molarity using Prism software to determine IC50 values.
(§3) The effect of two known inhibitors of CD10 on prodrug activity in Ramos, LNCaP and Ball-1 cells was evaluated. The IC50 of Suc-βAla-Ile-Ala-Leu-Dox was determined in the presence of increasing concentration of the CD10 inhibitors, phosphoramidon and thiorphan.

The conditions of series [2]: mouse, in vivo, iv, 100 umol/kg.
Procedure: (§5) Plasma was obtained from three individual animals in each group at 5 minutes, 1, 2, 4, or 6 hr.
For the next series, the system named is Namalwa cells (CD10pos). Kind of series: cells. The class given is cell-based. To be noted: ratio of IC50. How it is done:
as §2

Another series relates to LNCaP xenografts. Kind of series: LNCaP xenograft in SCID mice, Q6DX2, equitoxic comparison (Example 27). The class given is in vivo, C.B-17.SCID mice. Here is the method:
All compounds except Suc-βAla-Leu-Ala-Leu-Dox (three levels) were dosed at two levels with the goal to get a dose response for all compounds.
Knowing that the LNCaP tumor bearing nude mice have weight loss, we chose very conservative dose levels for each compound estimated to be well-tolerated equitoxic doses based on earlier studies and SD-MTD results. The high dose level for repeat dosing is usually 80% of their SD-MTD, and the low dose level is 80% of the high dose level. Accordingly, groups of ten male CD17.SCID mice, subcutaneously injected with 2.5 million LNCaP cells, were treated intravenously with the compounds at the levels described in Table 22 at six day intervals for a total of two identical doses (Q6DX2).
LNCaP tumors grew well in SCID mice, but the SCID mice with LNCaP tumor xenografts experienced severe weight loss, as 80% of control mice had more than 25% of weight loss by the end of the study. Nevertheless, the efficacy of different treatments at approximately equitoxic levels were compared based on the time it took for 50% of mice to reach toxic weight loss and the total numbers of mice with toxic weight loss at the end of study.

Series [3] concerns LNCaP human prostate carcinoma xenografts. How it is done: LNCaP human prostate carcinoma cells express high levels of CD10 on the surface. Suc-βAla-Leu-Ala-Leu-Dox and Suc-Leu-Ala-Gly-Dox were tested at a single dose level Q7Dx5. […] The mice were weighed and tumors were measured (by caliper) at least once a week prior to start of dosing (Day 0), then twice a week during the study. Immediately before the start of dosing (Study Day −2 to Day 0), mice were randomized to various groups based on the weight of the tumors. […] Mice were euthanized after the tumors reached a cutoff weight of 1.5 g (cancer endpoint), or when mice suffered over 25% weight loss (toxic endpoint). Studies were terminated at Day 60.

Series [4] relates to LNCaP (prostate carcinoma) cells. To be noted: ratio of IC50. Here is the method:
(§4) Adherent cells, LNCaP (prostate carcinoma), HT-29 (colon carcinoma) and PC-3 (prostate carcinoma), were cultured in DMEM media containing 10% heat inactivated fetal calf serum (FCS). On the day of the study the cells were detached from the plate with a trypsin solution. The collected cells were washed and resuspended at a concentration of 0.25×10^6 cells/ml in DMEM containing 10% FCS. 100 μl of cell suspension were added to 96 well plates and the plates were incubated for 3 hours to allow the cells to adhere. […] The plates were then incubated for 24 hours, pulsed with 10 μl of a 100 μCi/ml ^3H-thymidine and incubated for an additional 24 hours (total incubation time 48 hours). The plates were harvested using a 96 well Harvester (Packard Instruments) and counted on a Packard Top Count Counter. Four parameter logistic curves were fitted to the ^3H-thymidine incorporation as a function of drug molarity using Prism software to determine IC50 values.
as §4, with “carcinoma), PC-3 (prostate” for “carcinoma), HT-29 (colon”, “and 22 RV1” for “and PC-3”, “with 1:0” for “with 10”
as §3

Series [5] has as its system Porcine Kidney CD10. Put plainly: Hydrolysis by purified CD10. Type of series: biochemical. Particulars: for % hydrolysis/10 hr: 12.5 μg/mL, 37° C., pH 7.4, product Leu-doxorubicin; for Fraction hydrolyzed relative to standard: standard Suc-βAla-Leu-Ala-Leu-Dox. How it is done:
Reaction products were analyzed by HPLC with fluorescence detection. Rates were essentially linear over the incubation period. The observed product was Leu-doxorubicin.

Series [6] concerns CD10 transfected CHO cells (clone 8). Put plainly: Conversion to Leu-Dox or Gly-Dox in cell supernatants, CD10 transfected CHO. The class given is cell-based, Chinese Hamster. To be noted: Clone 8 (CD10 transfected), 10 μM, 37° C. Here is the method:
as §1

The conditions of series [7]: mouse, in vivo, iv, 100 umol/kg. This is another data set of the same source.
Procedure: as §5
The test system of series [8] is human colon carcinoma (HT-29) xenograft. From the text: Healthy young male nude mice were subcutaneously injected with 5 million of HT-29 cells.
Series [9] can be described thus: Pharmacokinetic/metabolism study, single IV bolus. Particulars: mice.
Procedure: as §5
The nature of series [10]: Second single dose Maximum Tolerated Dose (SD-MTD) study, 49 days. Particulars: mouse, in vivo. Here is the method: In a second single dose Maximum Tolerated Dose (SD-MTD) study, groups of five normal ICR mice were administered intravenous bolus doses of Suc-βAla-Leu-Ala-Leu-Dox. The mice were observed daily for 49 days and body weights measured twice weekly.
In a second single dose Maximum Tolerated Dose (SD-MTD) study, groups of five normal ICR mice were administered intravenous bolus doses of Suc-Leu-Ala-Leu-Dox. The mice were observed daily for 49 days and body weights measured twice weekly.
In a second single dose Maximum Tolerated Dose (SD-MTD) study, groups of five normal ICR mice were administered intravenously bolus doses of Suc-Ile-Ala-Leu-Dox. The mice were observed daily for 49 days and body weights measured twice weekly.
In a second single dose Maximum Tolerated Dose (SD-MTD) study, groups of five normal ICR mice were administered intravenous bolus doses of Suc-βAla-Ile-Ala-Leu-Dox. The mice were observed daily for 49 days and body weights measured twice weekly.

Series [11] relates to Porcine Kidney CD10. Kind of series: Hydrolysis by purified CD10. Type of series: biochemical. To be noted: release of Leu-pNA vs Leu-Dox, 37° C., pH 7.4.
[12] abbreviates: 40 mg/kg every 7 days for 5 doses.
Where [13] appears, read: 67 mg/kg every 7 days for 5 doses.

In the case of `COc1cccc2c1C(=O)c1c(O)c3c(c(O)c1C2=O)C[C@@](O)(C(=O)CO)C[C@@H]3O[C@H]1C[C@H](NC(=O)CNC(=O)[C@H](C)NC(=O)[C@H](CC(C)C)NC(=O)CCC(=O)O)[C@H](O)[C@H](C)O1` [Suc-Leu-Ala-Gly-Dox], in series [1] (110 mg/kg (70 Dox equi) Q7D × 3), the “TGI D22” value amounted to 39.7±29.5%. For the same compound, the “Survivor D36” value in series [1] (110 mg/kg Q7D × 3, N 8) is reported as “D36: 6*”. In addition, the “Toxic Endpoint” value in series [1] (110 mg/kg Q7D × 3, >20% body weight loss) turned out to be 0. The “Cancer Endpoint” value in [1] (110 mg/kg Q7D × 3, tumors reaching 1000 mg) was found to be 2. Moreover, in the series on Parental CHO cells, the “Conversion rate to Leu-Dox or Gly-Dox” value came out at 0.06 mM/h and the “Percent Conversion/Hour to Leu-Dox or Gly-Dox” value amounted to 0.57 Percent Conversion/Hour. The “Ratio Ball-1:Ramos” value in the series with Ramos cells (CD10pos) is given as 1. Also, in [2], the “Plasma AUC0-6 hr of AL-Dox or AG-Dox*” value came out at 2.1 µM·h and the “Plasma AUC0-6 hr of L-Dox or G-Dox*” value amounted to 0.9 µM·h. Also, the “Ratio Ball-1:Namalwa” value with Namalwa cells (CD10pos) is 1. In addition, in the series with LNCaP xenografts (110 mg/kg Q6DX2), the “% Weight Loss at the end of study” value came out at 80% and the “Time: 50% Weight Loss” value is 33 days. In addition, in the series on LNCaP xenografts (132 mg/kg Q6DX2), the “% Weight Loss at the end of study” value is 80% and the “Time: 50% Weight Loss” value is 29 days. Besides, the “Tumor Weight (mg) D12” value in series [3] (Dose 110 mg/kg (Table 19), Q7DX5) is “D12: 795 ± 177 (n = 7) mg”. For the same compound, in series [3] (Dose 110 mg/kg (Table 19), Q7DX5, mice affected/total), the “Toxicity (Weight Loss >25%)” value is listed as 1/7. Further, the “Tumor Growth Inhibition (% over control)” value in series [3] (mouse, in vivo, 110 mg/kg) is given as 1.4%. In series [4], the “Ratio PC-3:LNCaP” value was found to be 3. In the series on Porcine Kidney CD10 [5], the “% hydrolysis/10 hr” value is on record as 0 % hydrolysis/10 hr and the “Fraction hydrolyzed relative to standard” value is 0. In [6], the “Conversion rate to Leu-Dox or Gly-Dox” value is 0.06 mM/h and the “Percent Conversion/Hour to Leu-Dox or Gly-Dox” value is recorded as 0.61 Percent Conversion/Hour. Further, the AUC(0-t) in series [7] worked out at 310 µM·h. Also, in [8] (setting [12]), the “% TGI (Day 14, mean)” value worked out at 4.0%; the “% TGI (Day 25, median)” value amounted to 37.2%; the “Calculated Mean Day of Survival” value was 39 days and 38.8 ± 6.6 days; the “Mean Tumor Weight at Day 14” value was 704 ± 92 mg. For the same compound, in series [8] (setting [12]), the “Median Tumor Weight at Day 25” value came out at 952 mg, the “Number of Long Term Survivors” value is recorded as 1/7 and the “Toxicity (Weight Loss >20%)” value is given as 0/7. Moreover, in series [8] (setting [13]), the “% TGI (Day 14, mean)” value stood at 33.2%*; the “% TGI (Day 25, median)” value turned out to be 43.5%; the “Calculated Mean Day of Survival” value is 41 days and 41.3 ± 7.2 days; the “Mean Tumor Weight at Day 14” value was 490 ± 124 mg. Further, in series [8] (setting [13]), the “Median Tumor Weight at Day 25” value was determined as 857 mg, the “Number of Long Term Survivors” value is reported as 3/7 and the “Toxicity (Weight Loss >20%)” value is on record as 0/7.
With `COc1cccc2c1C(=O)c1c(O)c3c(c(O)c1C2=O)C[C@@](O)(C(=O)CO)C[C@@H]3O[C@H]1C[C@H](NC(=O)[C@H](CC(C)C)NC(=O)[C@H](C)NC(=O)[C@H](CC(C)C)NC(=O)CCC(=O)O)[C@H](O)[C@H](C)O1` [Suc-Leu-Ala-Leu-Dox], the “Ratio Ball-1:Ramos” value with Ramos cells (CD10pos) was around 30. Besides, in series [2], the “Plasma AUC0-6 hr of AL-Dox or AG-Dox*” value turned out to be 1.6 µM·h and the “Plasma AUC0-6 hr of L-Dox or G-Dox*” value was 5.1 µM·h. For the same compound, in the series with Namalwa cells (CD10pos), the “Ratio Ball-1:Namalwa” value is around 35. In the series on LNCaP xenografts (58.3 mg/kg Q6DX2), the “Time: 50% Weight Loss” value stood at 33 days and the “Time: 100% Weight Loss” value was 61 days. For the same compound, in the series on LNCaP xenografts (70.5 mg/kg Q6DX2), the “Time: 50% Weight Loss” value worked out at 26 days and the “Time: 100% Weight Loss” value is 47 days. In series [9], the “Major Plasma Metabolite” value is recorded as “Leu-Dox”. Also, the MTD in series [10] was determined as 42 mg/kg. Moreover, the MTD in series [10] (iv) is 71 mg/kg. For the same compound, the “Ratio PC-3:LNCaP” value in [4] turned out to be 50. Further, in the series with Porcine Kidney CD10 [5], the “% hydrolysis/10 hr” value is reported as 8.3 % hydrolysis/10 hr and the “Fraction hydrolyzed relative to standard” value came to 0.75. The AUC(0-t) in series [7] was 634 µM·h.
Turning to Suc-βAla-Leu-Ala-Leu-pNA, in the series on Porcine Kidney CD10 [11], the “rate of cleavage relative to Suc-βAla-Leu-Ala-Leu-Dox” value was determined as 590 times.
